Here are results for 6 compounds from US5637724A (priority 1995, dated 1997).

The target of this experiment is GABAa receptor. In words: GABAa receptor binding, displacement of 3H-RO15-1788 [3H-Flumazenil]. The conditions noted are these: rat cortical tissue, 0.5 nM 3H-RO15-1788, 30 min at 4° C., pH 7.4. As for the experimental part: The pharmaceutical utility of compounds of this invention are indicated by the following assay for GABAa receptor activity.
Assays are carded out as described in Thomas and Tallman (J. Bio. Chem. 156: 9838-9842, J. Neurosci. 3: 433-440, 1983). Rat conical tissue is dissected and homogenized in 25 volumes (w/v) of 0.05M Tris HCl buffer (pH 7.4 at 4° C.). The tissue homogenate is centrifuged in the cold (4°) at 20,000×g for 20'. The supernatant is decanted and the pellet is rehomogenized in the same volume of buffer and again centrifuged at 20,000×g. The supernatant is decanted and the pellet is frozen at -20° C. overnight. The pellet is then thawed and rehomogenized in 25 volume (original wt/vol) of buffer and the procedure is carded out twice. The pellet is finally resuspended in 50 volumes (w/vol of 0.05M Tris HCl buffer (pH 7.4 at […]).
Incubations contain […] of tissue homogenate, […] of radioligand 0.5 nM (3H-RO15-1788 [^3 H-Flumazenil] specific activity 80 Ci/mmol), drug or blocker and buffer to a total volume of […]. Incubations are carried for 30 min at 4° C. then are rapidly filtered through GFB filters to separate free and bound ligand. Filters are washed twice with fresh 0.05M Tris HCl buffer (pH 7.4 at 4° C.) and counted in a liquid scintillation counter. 1.0 mM diazepam is added to some tubes to determine nonspecific binding. Data are collected in triplicate determinations, averaged and % inhibition of total specific binding is calculated. Total Specific Binding=Total-Nonspecific. In some cases, the amounts of unlabeled drugs is varied and total displacement curves of binding are carded out. Data are converted to a form for the calculation of IC50 and Hill Coefficient (nH).
As usually defined, the Ki is a measure of affinity in units of concentration, obtained from inhibition or displacement. High values mean a looser hold on the target, low ones a stronger hold on the target. For the compound `O=c1[nH]c2cc(F)ccc2n1-c1nc2ccc(F)cc2o1` [Compound 4, 3-(2-(6-fluorobenzoxazyl))-6-fluorobenzimidazol-2-(1H)-one], the affinity, expressed as Ki, was 0.025 µM.
The result for `O=c1[nH]c2c(n1-c1nc3ccc(F)c(F)c3o1)CCCC2` [Compound 5] reads 0.021 µM.
The result for `O=c1[nH]c2cc(F)ccc2n1-c1nc2cccc(F)c2o1` [Compound 3, 3-(2-(7-fluorobenzoxazyl))-6-fluorobenzimidazol-2-(1H)-one] reads 0.014 µM; that for `COc1ccc2oc(-n3c4c([nH]c3=O)CCCC4)nc2c1` [Compound 6], 0.081 µM; that for `O=c1[nH]c2c(n1-c1nc3ccc(F)cc3o1)CCCCC2` [Compound 2], 0.0046 µM.
The result for `O=c1[nH]c2c(n1-c1nc3ccc(F)c(F)c3o1)CCCCC2` [Compound 1] reads 0.003 µM.
